Source: patent US8557792B2, “Method of treating vitamin B12 deficiency” (priority 2007, dated 2013)

Tests used:
[1] = Vitamin B12 absorption (plasma PK) after dosing Sprague-Dawley rats; type: in vivo; conditions: male rats
Protocol: Tablets with four types of different ingredients were made as follows: (1) 8.8 mg of vitamin B12, 35 mg of SNAC were weighed, thoroughly mixed and made into a tablet for dosing on rat; (2) 8.8 mg of vitamin B12, 35 mg of SNAC and 5 mg of Capmul PG-8 were weighed, thoroughly mixed and made into a tablet; (3) 8.8 mg of vitamin B12, 35 mg of SNAC and 0.9 mg of Providone were weighed, thoroughly mixed and made into a tablet. Each of the four processes was repeated to produce more tablets.
Male Sprague-Dawley rats (325-350 g) were dosed with vitamin B12 intravenously (0.5 mg/kg) alone, or orally with the tablets made in Example 4 at a dose of 50 mg/kg vitamin B12 alone or in combination with SNAC at 200 mg/kg. Blood samples were collected at 0, 3, 10, 20, 30, 60, 120, 240 and 360 minutes post dosing. Plasma samples were analyzed for B12 by RIA. The model independent PK metrics obtained following B12-SNAC combination were compared to those obtained following B12 alone.

[2] = Serum cyanocobalamin pharmacokinetics after dosing human subjects; type: in vivo; conditions: healthy male subjects, fasted, single intravenous dose 1 mg cyanocobalamin, 4 subjects
Protocol: Sixteen healthy male subjects were randomized to receive one of the following treatments: • (1) Treatment B: a single oral dose of cyanocobalamin/SNAC (5 mg cyanocobalamin/100 mg SNAC) administered in the fasted state as a tablet. (6 subjects); • (2) Treatment C: a single oral dose of cyanocobalamin alone (5 mg cyanocobalamin, VitaLabs, commercial) administered in the fasted state as a tablet. (6 subjects). • (3) Treatment D: a single intravenous dose of cyanocobalamin (1 mg cyanocobalamin) administered in the fasted state. (4 subjects). Each subject received a 1 mL intravenous injection of a 1 mg/mL (1000 μg/mL) solution resulting in a total dose of 1 mg cyanocobalamin.
The subjects were fasted overnight prior to dosing and had no liquids (including water) consumption for at least one hour before and after dosing. The oral forms of cyanocobalamin/SNAC tablets were administered in a single dose as tablets with 50 mL of plain water. Twenty-five blood samples were drawn for cyanocobalamin analyses at the following time points: within 30 minutes pre-dose and at Minutes 2, 5, 10, 20, 30, 40, 50, and at Hours 1, 1.5, 2, 3, 4, 5, 6, 7, 8, 9, 10, 11, 12, 14, 16, 20 and 24 post-dose.
Pharmacokinetic metrics was obtained following a model independent pharmacokinetic analysis of individual cyanocobalamin concentrations. Descriptive statistics was used to summarize the results.

[3] = IV, 0.5 mg/kg vitamin B12, N = 5
[4] = PO tablet, 50 mg/kg vitamin B12 (alone or with 200 mg/kg SNAC), N = 5

Row | AUC Mean [1, 3] [µg·min/mL] | Tmax Mean [1, 3] [min] | Cmax Mean ([1]; IV, 0.5 mg/kg vitamin B12, plasma B12 by RIA, N = 5) [ng/mL] | AUC Mean [1, 4] [µg·min/mL] | Tmax Mean [1, 4] [min] | Cmax Mean ([1]; PO tablet, 50 mg/kg vitamin B12 (alone or with 200 mg/kg SNAC), plasma B12 by RIA, N = 5) [ng/mL] | Mean Bioavailability ([1]; PO tablet, 50 mg/kg vitamin B12 (alone or with 200 mg/kg SNAC), versus IV) [%] | Mean B12 peak concentration (Cmax) [2] [ng/mL] | mean AUClast (0-24) [2] [ng·h/mL] | Substance
1 | 65.84 | 4.4 | 2150 | 28.72 | 52 | 140 | 0.42 | – | – | Vitamin B12
2 | – | – | – | – | – | – | – | 221.287 ± 80.248 | 215.391 ± 44.602 | cyanocobalamin
